Measurements from the kinase profiling compilation of Christmann-Franck et al. (2016).

Assays:
Experiment in all cases: radiometric filter-binding kinase assay, Kinase HotSpot
Settings in all cases: compound 0.5 µM; ATP 10 µM
ABL2 (human) = ABL2 (human) (UniProt P42684)
ACVRL1 (human) = ACVRL1 (human) (UniProt P37023)
AKT1 (human) = AKT1 (human) (UniProt P31749)
BRSK1 (human) = BRSK1 (human) (UniProt Q8TDC3)
CAMK2A (human) = CAMK2A (human) (UniProt Q9UQM7)
CAMK2B (human) = CAMK2B (human) (UniProt Q13554)
CDK2 CCNA2 (human) = CDK2 CCNA2 (human) (UniProt P24941+P20248)
CLK1 (human) = CLK1 (human) (UniProt P49759)
DSTYK (human) = DSTYK (human) (UniProt Q6XUX3)
DYRK2 (human) = DYRK2 (human) (UniProt Q92630)
DYRK4 (human) = DYRK4 (human) (UniProt Q9NR20)
FGFR1 (human) = FGFR1 (human) (UniProt P11362)
FGFR3 (human) = FGFR3 (human) (UniProt P22607)
[1] = system: FLT4 (human), P35916 [Q890H]
FRK (human) = FRK (human) (UniProt P42685)
FYN (human) = FYN (human) (UniProt P06241)
GRK7 (human) = GRK7 (human) (UniProt Q8WTQ7)
ITK (human) = ITK (human) (UniProt Q08881)
[2] = system: MAP2K6 (human), P52564 [S207E/T211E]
MAP3K5 (human) = MAP3K5 (human) (UniProt Q99683)
MAP4K5 (human) = MAP4K5 (human) (UniProt Q9Y4K4)
MAPK14 (human) = MAPK14 (human) (UniProt Q16539)
MAPK3 (human) = MAPK3 (human) (UniProt P27361)
MAPK8 (human) = MAPK8 (human) (UniProt P45983)
MERTK (human) = MERTK (human) (UniProt Q12866)
MINK1 (human) = MINK1 (human) (UniProt Q8N4C8)
NEK11 (human) = NEK11 (human) (UniProt Q8NG66)
NEK2 (human) = NEK2 (human) (UniProt P51955)
NUAK1 (human) = NUAK1 (human) (UniProt O60285)
PAK4 (human) = PAK4 (human) (UniProt O96013)
PAK7 (human) = PAK7 (human) (UniProt Q9P286)
PHKG1 (human) = PHKG1 (human) (UniProt Q16816)
PTK2B (human) = PTK2B (human) (UniProt Q14289)
ROCK2 (human) = ROCK2 (human) (UniProt O75116)
RPS6KA6 KD1 KD2 (human) = RPS6KA6 KD1 KD2 (human) (UniProt Q9UK32)
STK10 (human) = STK10 (human) (UniProt O94804)
STK11 (human) = STK11 (human) (UniProt Q15831)
STK24 (human) = STK24 (human) (UniProt Q9Y6E0)
STK25 (human) = STK25 (human) (UniProt O00506)
[3] = target: TYK2 JH1 catalytic (human) (UniProt P29597)
WNK2 (human) = WNK2 (human) (UniProt Q9Y3S1)
ZAP70 (human) = ZAP70 (human) (UniProt P43403)

BRSK1 (human), sequence (Q8TDC3 whole entry, looked up): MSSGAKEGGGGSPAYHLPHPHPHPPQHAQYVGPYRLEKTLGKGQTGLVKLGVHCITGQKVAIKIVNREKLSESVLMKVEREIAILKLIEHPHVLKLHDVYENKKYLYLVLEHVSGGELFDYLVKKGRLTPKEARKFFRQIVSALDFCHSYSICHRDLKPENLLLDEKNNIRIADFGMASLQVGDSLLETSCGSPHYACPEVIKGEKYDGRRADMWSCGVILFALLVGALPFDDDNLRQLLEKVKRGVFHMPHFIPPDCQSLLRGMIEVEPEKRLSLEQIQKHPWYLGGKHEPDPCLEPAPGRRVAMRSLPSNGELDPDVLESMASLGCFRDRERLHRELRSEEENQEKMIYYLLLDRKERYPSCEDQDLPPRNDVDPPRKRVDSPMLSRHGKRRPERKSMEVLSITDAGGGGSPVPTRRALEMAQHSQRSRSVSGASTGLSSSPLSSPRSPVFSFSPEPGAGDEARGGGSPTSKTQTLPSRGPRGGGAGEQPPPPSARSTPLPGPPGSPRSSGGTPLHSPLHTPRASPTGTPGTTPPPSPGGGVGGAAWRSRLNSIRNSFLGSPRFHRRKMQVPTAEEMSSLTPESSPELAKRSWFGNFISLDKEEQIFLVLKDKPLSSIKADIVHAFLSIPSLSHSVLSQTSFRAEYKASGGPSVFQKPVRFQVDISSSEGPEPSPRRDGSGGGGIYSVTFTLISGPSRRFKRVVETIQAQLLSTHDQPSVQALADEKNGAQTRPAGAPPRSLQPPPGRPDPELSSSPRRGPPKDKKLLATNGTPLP
FGFR1 (human), sequence (P11362 whole entry, looked up): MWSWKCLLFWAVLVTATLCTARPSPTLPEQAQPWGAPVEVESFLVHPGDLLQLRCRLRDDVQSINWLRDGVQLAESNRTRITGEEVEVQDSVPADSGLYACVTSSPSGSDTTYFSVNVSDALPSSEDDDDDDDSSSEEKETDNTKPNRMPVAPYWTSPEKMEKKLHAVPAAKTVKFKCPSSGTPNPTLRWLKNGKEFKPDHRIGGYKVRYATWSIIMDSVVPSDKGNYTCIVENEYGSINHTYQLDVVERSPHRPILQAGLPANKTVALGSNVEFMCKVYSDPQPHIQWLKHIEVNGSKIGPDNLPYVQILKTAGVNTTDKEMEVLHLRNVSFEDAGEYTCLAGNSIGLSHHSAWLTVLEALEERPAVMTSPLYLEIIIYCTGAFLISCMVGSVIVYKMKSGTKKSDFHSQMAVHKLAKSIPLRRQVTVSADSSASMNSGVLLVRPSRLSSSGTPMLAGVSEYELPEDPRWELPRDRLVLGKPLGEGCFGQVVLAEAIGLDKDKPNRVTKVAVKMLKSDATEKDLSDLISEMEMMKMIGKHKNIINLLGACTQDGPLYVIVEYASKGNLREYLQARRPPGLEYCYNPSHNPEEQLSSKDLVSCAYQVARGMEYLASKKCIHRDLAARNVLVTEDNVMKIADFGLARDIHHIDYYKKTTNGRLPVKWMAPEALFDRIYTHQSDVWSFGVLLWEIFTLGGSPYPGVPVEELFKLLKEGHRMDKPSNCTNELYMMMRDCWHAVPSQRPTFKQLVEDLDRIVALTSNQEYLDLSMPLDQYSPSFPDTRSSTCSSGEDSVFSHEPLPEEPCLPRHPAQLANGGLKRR
MAPK3 (human), sequence (P27361 whole entry, looked up): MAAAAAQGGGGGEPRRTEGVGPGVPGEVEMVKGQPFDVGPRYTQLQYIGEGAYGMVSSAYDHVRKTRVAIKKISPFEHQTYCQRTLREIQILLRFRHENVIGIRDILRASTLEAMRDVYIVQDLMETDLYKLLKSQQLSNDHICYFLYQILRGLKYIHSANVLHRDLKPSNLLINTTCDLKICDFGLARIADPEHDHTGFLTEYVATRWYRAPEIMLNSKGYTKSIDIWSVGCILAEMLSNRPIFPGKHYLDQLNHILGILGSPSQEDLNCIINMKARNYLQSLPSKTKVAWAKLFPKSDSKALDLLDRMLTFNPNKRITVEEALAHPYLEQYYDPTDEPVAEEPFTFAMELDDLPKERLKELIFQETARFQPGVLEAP
NEK11 (human), sequence (Q8NG66 whole entry, looked up): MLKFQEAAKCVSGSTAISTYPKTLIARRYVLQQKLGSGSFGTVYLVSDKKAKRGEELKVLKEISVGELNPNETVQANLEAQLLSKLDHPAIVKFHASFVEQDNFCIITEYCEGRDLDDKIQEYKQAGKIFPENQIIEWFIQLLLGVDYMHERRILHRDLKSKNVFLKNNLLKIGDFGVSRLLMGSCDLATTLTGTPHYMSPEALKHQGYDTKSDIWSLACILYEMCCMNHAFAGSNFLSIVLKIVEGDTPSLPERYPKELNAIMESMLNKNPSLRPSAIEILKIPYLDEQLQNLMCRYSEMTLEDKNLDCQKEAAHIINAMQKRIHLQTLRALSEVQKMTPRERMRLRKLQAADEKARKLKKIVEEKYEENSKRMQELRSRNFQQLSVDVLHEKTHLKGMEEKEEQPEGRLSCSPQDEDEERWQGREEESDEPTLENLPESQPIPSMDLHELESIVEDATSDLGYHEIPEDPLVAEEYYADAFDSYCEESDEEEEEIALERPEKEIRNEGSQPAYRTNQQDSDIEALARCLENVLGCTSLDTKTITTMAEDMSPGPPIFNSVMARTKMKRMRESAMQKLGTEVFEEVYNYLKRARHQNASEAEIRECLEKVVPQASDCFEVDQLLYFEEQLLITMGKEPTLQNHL
ACVRL1 (human), sequence (P37023 whole entry, looked up): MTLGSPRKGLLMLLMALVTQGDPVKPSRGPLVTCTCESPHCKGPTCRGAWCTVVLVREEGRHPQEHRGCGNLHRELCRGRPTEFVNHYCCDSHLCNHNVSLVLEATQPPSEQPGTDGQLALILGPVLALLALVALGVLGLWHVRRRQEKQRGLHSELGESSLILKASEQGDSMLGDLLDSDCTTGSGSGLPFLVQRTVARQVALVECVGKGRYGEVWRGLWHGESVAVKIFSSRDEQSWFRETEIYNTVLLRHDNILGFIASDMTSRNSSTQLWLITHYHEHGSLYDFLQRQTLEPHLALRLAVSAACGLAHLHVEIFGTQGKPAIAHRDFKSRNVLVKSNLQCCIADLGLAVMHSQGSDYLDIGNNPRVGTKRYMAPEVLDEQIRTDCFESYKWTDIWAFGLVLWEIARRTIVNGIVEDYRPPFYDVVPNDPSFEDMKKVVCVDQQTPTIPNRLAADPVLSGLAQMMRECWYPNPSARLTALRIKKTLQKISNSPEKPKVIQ
NUAK1 (human), sequence (O60285 whole entry, looked up): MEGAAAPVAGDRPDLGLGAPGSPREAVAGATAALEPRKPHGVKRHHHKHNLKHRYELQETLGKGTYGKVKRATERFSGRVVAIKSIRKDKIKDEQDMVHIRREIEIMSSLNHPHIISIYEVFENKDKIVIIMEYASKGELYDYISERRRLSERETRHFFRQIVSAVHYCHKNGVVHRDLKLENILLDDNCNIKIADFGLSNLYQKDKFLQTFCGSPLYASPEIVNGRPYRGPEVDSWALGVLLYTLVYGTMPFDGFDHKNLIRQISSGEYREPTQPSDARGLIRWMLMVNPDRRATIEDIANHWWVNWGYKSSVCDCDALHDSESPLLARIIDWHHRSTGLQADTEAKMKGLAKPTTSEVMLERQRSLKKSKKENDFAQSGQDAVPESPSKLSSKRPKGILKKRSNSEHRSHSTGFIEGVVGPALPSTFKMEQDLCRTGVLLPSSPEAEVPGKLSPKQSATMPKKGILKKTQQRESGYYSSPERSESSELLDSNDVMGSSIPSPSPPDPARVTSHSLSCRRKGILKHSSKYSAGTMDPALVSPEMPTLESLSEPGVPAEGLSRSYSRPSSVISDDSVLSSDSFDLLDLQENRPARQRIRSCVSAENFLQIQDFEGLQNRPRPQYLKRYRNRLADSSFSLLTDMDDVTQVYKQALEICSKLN
FYN (human), sequence (P06241 whole entry, looked up): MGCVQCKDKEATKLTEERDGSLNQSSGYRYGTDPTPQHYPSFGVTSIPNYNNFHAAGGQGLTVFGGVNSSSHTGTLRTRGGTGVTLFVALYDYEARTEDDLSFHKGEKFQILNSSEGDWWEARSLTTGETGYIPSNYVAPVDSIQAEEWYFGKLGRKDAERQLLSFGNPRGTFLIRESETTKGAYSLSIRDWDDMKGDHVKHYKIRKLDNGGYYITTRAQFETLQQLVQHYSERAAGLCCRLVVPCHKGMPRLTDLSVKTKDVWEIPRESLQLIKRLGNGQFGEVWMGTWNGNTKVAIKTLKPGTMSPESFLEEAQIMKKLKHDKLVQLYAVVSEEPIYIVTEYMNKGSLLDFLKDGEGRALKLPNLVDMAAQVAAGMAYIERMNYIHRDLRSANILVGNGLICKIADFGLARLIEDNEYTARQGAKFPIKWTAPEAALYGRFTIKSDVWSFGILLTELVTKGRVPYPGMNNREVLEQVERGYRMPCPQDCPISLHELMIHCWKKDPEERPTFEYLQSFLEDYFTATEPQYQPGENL
MAP2K6 (human), P52564 [S207E/T211E], sequence (P52564 whole entry S207E/T211E, looked up): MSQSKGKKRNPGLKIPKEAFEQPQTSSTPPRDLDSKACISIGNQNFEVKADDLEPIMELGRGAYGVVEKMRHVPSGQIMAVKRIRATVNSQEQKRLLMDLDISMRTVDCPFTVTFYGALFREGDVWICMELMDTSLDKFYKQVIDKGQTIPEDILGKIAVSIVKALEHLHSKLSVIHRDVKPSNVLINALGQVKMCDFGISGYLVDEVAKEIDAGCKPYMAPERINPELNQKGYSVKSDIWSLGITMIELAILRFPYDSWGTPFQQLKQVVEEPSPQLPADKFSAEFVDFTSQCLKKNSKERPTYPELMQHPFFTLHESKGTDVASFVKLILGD
MAPK14 (human), sequence (Q16539 whole entry, looked up): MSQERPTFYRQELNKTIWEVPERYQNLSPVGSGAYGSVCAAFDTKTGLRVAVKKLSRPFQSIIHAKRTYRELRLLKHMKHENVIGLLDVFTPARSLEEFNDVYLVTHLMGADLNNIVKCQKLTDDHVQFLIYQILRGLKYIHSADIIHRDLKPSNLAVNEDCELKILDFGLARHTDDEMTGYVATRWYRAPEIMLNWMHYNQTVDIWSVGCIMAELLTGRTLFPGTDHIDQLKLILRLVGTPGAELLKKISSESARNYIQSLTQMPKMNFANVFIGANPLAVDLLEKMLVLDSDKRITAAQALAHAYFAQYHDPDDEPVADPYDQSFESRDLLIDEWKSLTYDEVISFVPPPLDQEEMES

Ic1cccc(CSc2nnc(-c3ccncc3)o2)c1
residual activity (ABL2 (human)): 110% | residual activity (ACVRL1 (human)): 103% | residual activity (AKT1 (human)): 98.6% | residual activity (BRSK1 (human)): 101% | residual activity (CAMK2A (human)): 92.3% | residual activity (CAMK2B (human)): 95.4% | residual activity (CDK2 CCNA2 (human)): 100% | residual activity (CLK1 (human)): 99.8% | residual activity (DSTYK (human)): 94.8% | residual activity (DYRK2 (human)): 96.8% | residual activity (DYRK4 (human)): 98.5% | residual activity (FGFR1 (human)): 92.4% | residual activity (FGFR3 (human)): 106% | residual activity [1]: 96.2% | residual activity (FRK (human)): 85.5% | residual activity (FYN (human)): 102% | residual activity (GRK7 (human)): 112% | residual activity (ITK (human)): 102% | residual activity [2]: 97% | residual activity (MAP3K5 (human)): 91.7% | residual activity (MAP4K5 (human)): 99.5% | residual activity (MAPK14 (human)): 99.3% | residual activity (MAPK3 (human)): 95.8% | residual activity (MAPK8 (human)): 84.7% | residual activity (MERTK (human)): 96.4% | residual activity (MINK1 (human)): 90.2% | residual activity (NEK11 (human)): 113% | residual activity (NEK2 (human)): 100% | residual activity (NUAK1 (human)): 95.1% | residual activity (PAK4 (human)): 83.6% | residual activity (PAK7 (human)): 99.3% | residual activity (PHKG1 (human)): 105% | residual activity (PTK2B (human)): 92.1% | residual activity (ROCK2 (human)): 89% | residual activity (RPS6KA6 KD1 KD2 (human)): 103% | residual activity (STK10 (human)): 93.8% | residual activity (STK11 (human)): 103% | residual activity (STK24 (human)): 108% | residual activity (STK25 (human)): 96.2% | residual activity [3]: 105% | residual activity (WNK2 (human)): 99.5% | residual activity (ZAP70 (human)): 107%

Cc1cncc2cccc(S(=O)(=O)N3CCCN(C(=O)CN)C[C@H]3C)c12
residual activity (ABL2 (human)): 98.9% | residual activity (ACVRL1 (human)): 99.2% | residual activity (AKT1 (human)): 104% | residual activity (BRSK1 (human)): 94.2% | residual activity (CAMK2A (human)): 93.2% | residual activity (CAMK2B (human)): 92.4% | residual activity (CDK2 CCNA2 (human)): 98.4% | residual activity (CLK1 (human)): 104% | residual activity (DSTYK (human)): 105% | residual activity (DYRK2 (human)): 101% | residual activity (DYRK4 (human)): 90.3% | residual activity (FGFR1 (human)): 85.7% | residual activity (FGFR3 (human)): 97.7% | residual activity [1]: 113% | residual activity (FRK (human)): 114% | residual activity (FYN (human)): 94.2% | residual activity (GRK7 (human)): 88.8% | residual activity (ITK (human)): 97.2% | residual activity [2]: 107% | residual activity (MAP3K5 (human)): 106% | residual activity (MAP4K5 (human)): 103% | residual activity (MAPK14 (human)): 110% | residual activity (MAPK3 (human)): 103% | residual activity (MAPK8 (human)): 98.8% | residual activity (MERTK (human)): 95.4% | residual activity (MINK1 (human)): 97.2% | residual activity (NEK11 (human)): 84.2% | residual activity (NEK2 (human)): 105% | residual activity (NUAK1 (human)): 91.1% | residual activity (PAK4 (human)): 99.5% | residual activity (PAK7 (human)): 101% | residual activity (PHKG1 (human)): 65.3% | residual activity (PTK2B (human)): 92.5% | residual activity (ROCK2 (human)): 3.22% | residual activity (RPS6KA6 KD1 KD2 (human)): 105% | residual activity (STK10 (human)): 42% | residual activity (STK11 (human)): 86.5% | residual activity (STK24 (human)): 92.4% | residual activity (STK25 (human)): 119% | residual activity [3]: 86.6% | residual activity (WNK2 (human)): 98% | residual activity (ZAP70 (human)): 102%
